Experimental data as given in US9238003B2, “Extended or continuous wear silicone hydrogel contact lenses for the extended release of comfort molecules” (AUBURN UNIVERSITY, priority 2005, dated 2016).

Key:
Assay type in all cases: physicochemical
[1] = Heat stability of HA solutions; details: heated 60 minutes
Method: The effect of heat conditions on HA solution was also assessed. In 2 mL microcentrifuge vials, 1 mL samples of HA solutions of 500 ng/mL and 10 μg/mL were heated to 105° C. and 121EC respectively. The 500 ng/mL samples were heated for 0 minutes, 5 minutes, 30 minutes and 60 minutes while the 10 μg/mL samples were heated for 15 minutes, 30 minutes, 45 minutes and 60 minutes. The sample vials were quenched in a room temperature water bath and assayed with an ELISA assay kit for HA.

[2] = Dynamic release of HA from hydrogel lenses in lacrimal solution (ELISA); details: largest HA, 1 million daltons; 6.5 mg HA per g PM
Method: Dynamic Release Studies. Dynamic release studies were conducted to measure how long a therapeutic contact lens would release drug in vitro under conditions similar to the eye surface. The studies are also able to reveal the order of the release.
The protocol for a kinetic release study begins with the synthesis of hydrogel as described previously. As each study was conducted in triplicate, three lenses were made of every HA-prepolymer formulation. A lacrimal solution isotonic with human tears (6.78 g/L NaCl, 2.18 g/L NaHCO3, 1.38 g/L Kcl, 0.084 g/L CaCl2 2H2O, pH 8) was pipetted into 50 mL centrifugation tubes, 20 mL per tube. Each lens was placed in a tube and incubated at 35EC on an orbital shaker. After measured time intervals, the lenses were extracted and deposited into fresh lacrimal solution. The lacrimal solution with HA released in it was stored at 4° C. until essayed. After data had been collected for 3-5 days, an ELISA assay for HA was used to determine the concentration in each release sample. If necessary, the samples were diluted to bring into the assay detection range.
Cumulative release curves were plotted for each lens formulation, and the data was used to calculate the rate of diffusion of HA from the hydrogel. The transport of the drug from the lens placed in a fluid environment was mathematically modeled. […]

[3] = Loading of HPMC into LFB lenses by soaking in aqueous HPMC solution
Text: The first step of this work was to assess the feasibility of loading HPMC directly into a lens. […] The mass uptake of various HPMC solutions is presented in Table 2 (showing mass loading of various HPMC concentrations and molecular weights).

[4] = Dynamic HPMC release studies, perfect sink (Sotax dissolution apparatus, DI water); details: soaked LFB lenses
Method: Dynamic HPMC Release Studies. Dynamic release studies were conducted to measure how long each therapeutic contact lens would release HPMC in-vitro. The studies were conducted with the perfect sink model in order to sustain the greatest driving force, using a Sotax Dissolution Apparatus (Horsham, Pa.), in which loaded lenses were placed in 250 mL of DI water (pH 6.4). Separate experiments were conducted to confirm the perfect sink volume.
In the Sotax apparatus, the release media was stirred at a constant rate of 30 rpm by paddles and kept at a constant temperature of 34° C. The average weight of the lenses out of the mold was 35 mg±6 mg. HPMC concentration in the release medium was determined via HPLC (Shimadzu, Japan) equipped with a refractive index detector. The mobile phase was deionized water, and a flow rate of 1 mL/min was maintained by the HPLC. A standard curve of refractive index and known HPLC concentration was established. Percent mass release curves were plotted for each lens.

[5] = Pre-polymer loading of HPMC into LFB lens formulation
Method: Synthesis of LFB Lenses and Synthesis of Imprinted LFB Lenses. Lenses were produced by mixing individual monomers of the LFB formulation. The monomers were kept refrigerated at 4° C. A typical formulation consisted of 1300 mg of Betacon macromer, 1300 mg of TRIS, and 1300 mg of DMA (referred to as the base formulation). The base formulation was equal parts of these monomers and used to calculate ratios of other components. Equal weights of EGDMA and PEG200DMA were added to a desired concentration anywhere between 0 and 10 wt % of the base formulation Imprinting monomers were then added between 0 and 10 wt % of the base formulation. Darocur 1173 was added to the solution to a concentration of 1% of the base formulation. The samples were thoroughly mixed by sonication for 30 minutes and then the comfort agent was added to the desired concentration. The formulations were exposed to high shear mixing for up to 1 minute and sonicated for at least 15 minutes to remove any dissolved air or air bubbles. After the comfort agent was added, the sample was sonicated and mixed until evenly dispersed.
A fixed volume was pipetted into polypropylene (PP) lens molds provided by CIBA Vision, Inc. The mass of formulation pipetted varied between 100 to 200 mg depending on the concentration of comfort agent. […]

change in signal strength (heat degradation of large HA) ([1]; 500 ng/mL solution)	change in concentration (heat degradation of large HA) ([1]; 10 μg/mL solution)	time HA was diffusing out of the lens [2]	Mass Loaded from Drug Solutions ([3]; 1 Day Soak, 0.1%)	Mass Loaded from Drug Solutions ([3]; 1 Day Soak, 1%)	Mass Loaded from Drug Solutions ([3]; 1 Day Soak, 10%)	Mass Loaded from Drug Solutions ([3]; 2 Day Soak, 0.1%)	Mass Loaded from Drug Solutions ([3]; 2 Day Soak, 1%)	Mass Loaded from Drug Solutions ([3]; 2 Day Soak, 10%)	Mass Loaded from Drug Solutions ([3]; 7 Day Soak, 0.1%)	Mass Loaded from Drug Solutions ([3]; 7 Day Soak, 1%)	Mass Loaded from Drug Solutions ([3]; 7 Day Soak, 10%)	Release Time After 7 Day Soak [4]	release time from soaked lenses [4]	loading after soaking in a solution for a week ([3]; any solution concentration)	loading of HPMC limited by thickness ([5]; 100 μm swollen lens thickness)	maximum mass of HPMC loaded (pre-polymer loaded) ([5]; 350 μm thick lens)	Substance
50%	30%	up to 3 days	–	–	–	–	–	–	–	–	–	–	–	–	–	–	Hyaluronic Acid [HA]
–	–	–	0.32 μg/lens	4.1 μg/lens	5.4 μg/lens	0.21 μg/lens	3.2 μg/lens	6.9 μg/lens	1.2 μg/lens	5.7 μg/lens	2.9 μg/lens	30 min	less than 30 minutes	–	–	–	hydroxypropyl methylcellulose [HPMC 10 KDa]
–	–	–	0.09 μg/lens	0.07 μg/lens	0.4 μg/lens	0.09 μg/lens	0.65 μg/lens	0 μg/lens	0.01 μg/lens	0.48 μg/lens	0 μg/lens	None	–	–	–	–	hydroxypropyl methylcellulose [HPMC 90 KDa]
–	–	–	0.001 μg/lens	0.003 μg/lens	0.004 μg/lens	0.08 μg/lens	0.04 μg/lens	0.01 μg/lens	0.006 μg/lens	0.2 μg/lens	0.1 μg/lens	None	–	≤ 0.2 μg/lens	~1,000 μg/lens	~8,000 μg/lens	hydroxypropyl methylcellulose [HPMC 120 KDa]
